The results in this text go back to patent US4864023A, “Pyrido(3,2,1-IJ)-1,3,4-benzoxadiazine derivatives” (priority 1988, dated 1989).

SMILES strings stand for the structures. Where a name gives a salt, the structure may show the parent alone.

This experiment deals with Escherichia coli ML4707. The experiment is described as follows: in vivo therapeutic efficacy, lethal systemic infection in mice. Conditions: E. coli ML4707 i.p. infection, ICR mice, p.o. at time of injection, mortality 5 days. As to the method:
The in vivo antibacterial activities of pyrido[3,2,1-ij]-1,3,4-benzoxadiazine derivatives prepared by Example 5, Example 30, Example 65 and Example 66 as mentioned below were tested against lethal infection of Escherichia coli ML4707, Pseudomonas aeruginosa 4au542 and Streptococcus pneumoniae 6-001. ICR mice weighing about 20 g were infected by intraperitoneal injection of a corresponding bacterial suspension. The test compounds were administered orally or subcutaneously at the time of injection. […] The respective 50% effective dose (ED50, mg/kg) which protects 50% of the animals from death caused by infection, is shown in Table 3.

As to `CCOC(=O)c1cn2c3c(c(N4CCC(N)C4)c(F)cc3c1=O)OCN2C` (centres unmarked) [Example 65, ethyl 10-(3-amino-1-pyrrolidinyl)-9-fluoro-3-methyl-7-oxo-2,3-dihydro-7H-pyrido[3,2,1-ij]-1,3,4-benzoxadiazine-6-carboxylate], the ED50 (Escherichia coli, ML4707, po, 120 h, read-out: 50% effective dose (ED50)) was found to be 1.12 mg/kg.
`CN1COc2c(N3CCC(N)C3)c(F)cc3c(=O)c(C(=O)O)cn1c23` (centres unmarked) [Example 66, 10-(3-amino-1-pyrrolidinyl)-9-fluoro-3-methyl-7-oxo-2,3-dihydro-7H-pyrido[3,2,1-ij]-1,3,4-benzoxadiazine-6-carboxylic acid hydrochloride]: for the setting “hydrochloride, 7200 min”, the “50% effective dose (ED50)” value amounted to 0.51 mg/kg.
